Data published in ChEMBL document CHEMBL1697781, “Assessment of the health effects of chemicals in humans: II. Construction of an adverse effects database for QSAR modeling” (Curr Drug Discov Technol, 2004).

Key:
Details in all cases: human; call rule not given here
Hepatotoxicity [1] = experiment: FDA HLAED, lactate dehydrogenase (LDH) increase
Hepatotoxicity [2] = experiment: FDA HLAED, serum glutamic pyruvic transaminase (SGPT) increase
Hepatotoxicity [3] = experiment: FDA HLAED, liver enzyme composite activity
Hepatotoxicity [4] = experiment: FDA HLAED, serum glutamic oxaloacetic transaminase (SGOT) increase
Hepatotoxicity [5] = experiment: FDA HLAED, gamma-glutamyl transferase (GGT) increase
Hepatotoxicity [6] = experiment: FDA HLAED, alkaline phosphatase increase
Throughout, for GGT Increase - Index Value: reference of the scale not given here.
Throughout, for LDH Increase - Index Value: reference of the scale not given here.

Row | Compound | LDH Increase - Activity Score (Hepatotoxicity [1]) | LDH Increase - Index Value (Hepatotoxicity [1]) | LDH Increase - Number of Reports (Hepatotoxicity [1]) | SGPT Increase - Activity Score (Hepatotoxicity [2]) | SGPT Increase - Index Value (Hepatotoxicity [2]) | SGPT Increase - Number of Reports (Hepatotoxicity [2]) | SGOT Increase - Activity Score (Hepatotoxicity [4]) | SGOT Increase - Index Value (Hepatotoxicity [4]) | SGOT Increase - Number of Reports (Hepatotoxicity [4]) | GGT Increase - Activity Score (Hepatotoxicity [5]) | GGT Increase - Index Value (Hepatotoxicity [5]) | GGT Increase - Number of Reports (Hepatotoxicity [5]) | Alkaline Phosphatase Increase - Activity Score (Hepatotoxicity [6]) | Alkaline Phosphatase Increase - Index Value (Hepatotoxicity [6]) | Alkaline Phosphatase Increase - Number of Reports (Hepatotoxicity [6]) | Composite Activity - Active (Hepatotoxicity [3]) | Composite Activity - Marginal (Hepatotoxicity [3]) | Composite Activity - Score (Hepatotoxicity [3]) | further results
1 | Clc1ccc(CO/N=C(\Cn2ccnc2)c2ccc(Cl)cc2Cl)c(Cl)c1 [OXICONAZOLE] | Inactive | 0 | < 4 | Inactive | 0 | < 4 | Inactive | 0 | < 4 | Inactive | 0 | < 4 | Inactive | 0 | < 4 | – | – | – | Composite Activity - Active (Hepatotoxicity [3]; Liver): 0; Composite Activity - Marginal (Hepatotoxicity [3]; Liver): 0; Composite Activity - Score (Hepatotoxicity [3]; Liver): Inactive
2 | C[N+](C)(C)CCO.Cn1c(=O)c2[n-]cnc2n(C)c1=O [OXTRIPHYLLINE] | Inactive | 0 | < 4 | Inactive | 0 | < 4 | Inactive | 0 | < 4 | Inactive | 0 | < 4 | Inactive | 0 | < 4 | 0 | 0 | Inactive | –
3 | CC(=O)O[C@H]1C(=O)[C@@]2(C)[C@H]([C@H](OC(=O)c3ccccc3)[C@]3(O)C[C@H](OC(=O)[C@H](O)[C@@H](NC(=O)c4ccccc4)c4ccccc4)C(C)=C1C3(C)C)[C@]1(OC(C)=O)CO[C@@H]1C[C@@H]2O [PACLITAXEL] | Inactive | 2.2 | >= 4 | Inactive | 0.8 | < 4 | Inactive | 2.5 | >= 4 | Inactive | 1.2 | >= 4 | Marginally Active | 3.7 | >= 4 | – | – | – | Composite Activity - Active (Hepatotoxicity [3]; Liver): 0; Composite Activity - Marginal (Hepatotoxicity [3]; Liver): 1; Composite Activity - Score (Hepatotoxicity [3]; Liver): Inactive
4 | NCCC(O)(P(=O)(O)O)P(=O)(O)O [PAMIDRONIC ACID] | Inactive | 4.1 | < 4 | Inactive | 4.1 | < 4 | Inactive | 4.1 | < 4 | Active | 12.4 | < 4 | Active | 16.6 | >= 4 | 2 | 0 | Active | –
5 | Fc1ccc([C@@H]2CCNC[C@H]2COc2ccc3c(c2)OCO3)cc1 [PAROXETINE] | Inactive | 0.4 | >= 4 | Inactive | 1 | >= 4 | Inactive | 1.2 | >= 4 | Inactive | 0.5 | >= 4 | Inactive | 0.7 | >= 4 | 0 | 0 | Inactive | –
6 | CC(C)(C)NC[C@H](O)COc1ccccc1C1CCCC1 [PENBUTOLOL] | Inactive | 0 | < 4 | Inactive | 0 | < 4 | Inactive | 0 | < 4 | Inactive | 0 | < 4 | Inactive | 0 | < 4 | 0 | 0 | Inactive | –
7 | Nc1nc2c(ncn2CCC(CO)CO)c(=O)[nH]1 [PENCICLOVIR] | Inactive | 0 | < 4 | Inactive | 0 | < 4 | Inactive | 0 | < 4 | Inactive | 0 | < 4 | Inactive | 0 | < 4 | 0 | 0 | Inactive | –
8 | N=C(N)c1ccc(OCCCCCOc2ccc(C(=N)N)cc2)cc1 [PENTAMIDINE] | Inactive | 5.7 | < 4 | Inactive | 5.7 | < 4 | Inactive | 5.7 | < 4 | Inactive | 0 | < 4 | Inactive | 11.5 | < 4 | 0 | 0 | Inactive | –
9 | OC[C@H]1O[C@@H](n2cnc3c2NC=NC[C@H]3O)C[C@@H]1O [PENTOSTATIN] | Inactive | 0 | < 4 | Inactive | 0 | < 4 | Inactive | 0 | < 4 | Inactive | 0 | < 4 | Inactive | 0 | < 4 | 0 | 0 | Inactive | –
